Strand notation (5' to 3'): a small letter for the sugar, then the base; units joined by * are phosphorothioate-linked, units joined directly phosphodiester-linked; [ ] holds rarer units or linkages, { } end groups; capitals alone tell only the bases. e = 2'-O-(2-methoxyethyl) (MOE); k = constrained ethyl (cEt); [5mC] = 5-methylcytosine; d = 2'-deoxy (DNA); m = 2'-O-methyl
System: Yap1 mRNA
Test: Antisense inhibition of human Yap1 in SNU-449 cells by modified oligonucleotides, single dose (Example 5, RTS36584)
Assay type: cell-based
Conditions: Table 39; SNU-449 cells, 10,000 cells per well, free uptake, 2,000 nM oligonucleotide, approx. 48 hours; RTS36584; normalized to RIBOGREEN; Yap1 mRNA relative to untreated control
Method in brief: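 Plate SNU-449 cells at 10,000 per well; add 2,000 nM modified oligonucleotide without transfection reagent; after ~48 h isolate RNA, run qRT-PCR with RTS36584, normalise to RIBOGREEN and report % UTC.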

Row | Substance | YAP1 (% UTC)
1 | 1198453 (kG*dA*d[5mC]*dT*dA*dA*dG*dT*dA*dA*dG*kG*eT*kT*eT*k[5mC]; antisense) [Compound 1198453] | 48
2 | 1198404 (kT*dT*dT*dG*dG*dA*dA*dG*dA*dT*d[5mC]*kT*eG*kA*eA*kA) [Compound 1198404] | 55

Same assay, conditions: Table 40 (separate experiment); SNU-449 cells, 10,000 cells per well, free uptake, 2,000 nM oligonucleotide, approx. 48 hours; RTS36584; normalized to RIBOGREEN; Yap1 mRNA relative to untreated control

Row | Substance | YAP1 (% UTC)
3 | 1198803 (antisense kT*eT*kA*dG*dA*d[5mC]*dT*dA*dA*dG*dT*dA*eA*eG*kG*kT) [Compound 1198803] | 62
4 | 1198732 (kT*eA*kT*dA*dA*d[5mC]*dT*dG*dG*dG*d[5mC]*dA*eA*eA*kT*kT; antisense) [Compound 1198732] | 86
5 | 1198800 (antisense kA*e[5mC]*kT*dA*dA*dG*dT*dA*dA*dG*dG*dT*eT*eT*k[5mC]*k[5mC]) [Compound 1198800] | 47
6 | 1198445 (k[5mC]*dT*dT*dT*dA*dA*dA*dG*dT*dG*dT*kA*eT*kG*eT*k[5mC]; antisense) [Compound 1198445] | 61
7 | 1198715 (kA*eT*kT*dG*dT*d[5mC]*dT*d[5mC]*dA*dT*dG*d[5mC]*e[5mC]*eT*kT*kA; antisense) [Compound 1198715] | 33
8 | 1198752 (kT*eT*kT*dG*dG*dA*dA*dG*dA*dT*d[5mC]*dT*eG*eA*kA*kA; antisense) [Compound 1198752] | 111
9 | 1198427 (k[5mC]*dA*dA*d[5mC]*dT*d[5mC]*dT*dT*dA*dT*dA*kT*eG*kG*eT*kT; antisense) [Compound 1198427] | 62
10 | 1198750 (kG*eG*kA*dA*dG*dA*dT*d[5mC]*dT*dG*dA*dA*eA*e[5mC]*kT*k[5mC]; antisense) [Compound 1198750] | 32

Same assay, conditions: Table 41; SNU-449 cells, 10,000 cells per well, free uptake, 2,000 nM modified oligonucleotide, approximately 48 hours; RTS36584; normalized to RIBOGREEN; Yap1 mRNA relative to untreated control cells

Row | Substance | YAP1 (% UTC)
11 | 1198656 (kG*k[5mC]*dA*d[5mC]*dT*dT*dT*dT*dA*d[5mC]*dA*dT*kT*eA*kG*eG; antisense) [Compound 1198656] | 11
12 | 1198662 (antisense kT*kT*dT*dG*dG*dA*dA*dG*dA*dT*d[5mC]*dT*kG*eA*kA*eA) [Compound 1198662] | 83
13 | 1198687 (antisense kA*kT*dT*dG*d[5mC]*dA*dA*dT*d[5mC]*dT*dG*dT*k[5mC]*eT*kG*eA) [Compound 1198687] | 55
14 | 1198635 (kA*kT*dG*dG*dA*dA*dA*dT*dT*dG*dT*d[5mC]*kT*e[5mC]*kA*eT; antisense) [Compound 1198635] | 57

Same assay, conditions: Table 42 (separate experiment); SNU-449 cells, 10,000 cells per well, free uptake, 2,000 nM modified oligonucleotide, approximately 48 hours; RTS36584; normalized to RIBOGREEN; Yap1 mRNA relative to untreated control cells

Row | Substance | YAP1 (% UTC)
15 | 1198230 (kG*kG*dA*dA*dG*dA*dT*d[5mC]*dT*dG*dA*eA*eA*e[5mC]*kT*k[5mC]) [Compound 1198230] | 81
16 | 1198699 (kA*kA*dA*dG*dT*dG*dT*dA*dT*dG*dT*d[5mC]*kA*eG*kA*eA; antisense) [Compound 1198699] | 30
17 | 1198646 (kT*kA*dT*dA*dA*d[5mC]*dT*dG*dG*dG*d[5mC]*dA*kA*eA*kT*eT) [Compound 1198646] | 80

Same assay, conditions: Table 43 experiment; SNU-449 cells, 10,000 cells per well, free uptake, 2,000 nM, approximately 48 hours; RTS36584; Yap1 mRNA normalized to RIBOGREEN, relative to untreated control cells

Row | Substance | YAP1 (% UTC)
18 | 1198467 (antisense kT*kA*dG*dA*dG*dT*dA*dT*dG*dT*dG*eG*k[5mC]*eA*kA*eT) [Compound 1198467] | 27

Same assay, conditions: Table 44 experiment; SNU-449 cells, 10,000 cells per well, free uptake, 2,000 nM, approximately 48 hours; RTS36584; Yap1 mRNA normalized to RIBOGREEN, relative to untreated control cells

Row | Substance | YAP1 (% UTC)
19 | 1198529 (kT*kT*dA*dA*dA*dG*dT*dG*dT*dA*dT*eG*kT*e[5mC]*kA*eG; antisense) [Compound 1198529] | 17
20 | 1198499 (kT*kT*dT*dA*dG*dG*dA*dT*dG*d[5mC]*dA*eT*kG*eG*kT*eT; antisense) [Compound 1198499] | 13
21 | 1198504 (kT*k[5mC]*dA*dG*dA*dT*dT*dT*dA*dG*dG*eA*kT*eG*k[5mC]*eA; antisense) [Compound 1198504] | 15
22 | 1198900 (kA*kG*dA*dG*dT*dA*dT*dG*dT*dG*dG*k[5mC]*dA*kA*dT*kA; antisense) [Compound 1198900] | 11
23 | 1198497 (antisense kA*kG*dG*dA*dT*dG*d[5mC]*dA*dT*dG*dG*eT*kT*eT*kT*eT) [Compound 1198497] | 22

Same assay, conditions: Table 45; Yap1 mRNA as percent of untreated control, SNU-449 cells, single dose

Row | Substance | YAP1 (% UTC)
24 | 1198909 (kG*kG*dT*dA*dT*dA*dA*d[5mC]*dT*dG*dG*kG*d[5mC]*kA*dA*kA; antisense) [Compound 1198909] | 56

Same assay, conditions: Table 46; Yap1 mRNA as percent of untreated control, SNU-449 cells, single dose

Row | Substance | YAP1 (% UT)
25 | 1198867 (kG*kT*dA*dA*dT*dA*dT*dT*dG*d[5mC]*dA*kA*eT*k[5mC]*eT*kG; antisense) [Compound 1198867] | 25
26 | 1198850 (kA*kG*dA*dT*dT*dT*dA*dG*dG*dA*dT*kG*e[5mC]*kA*eT*kG; antisense) [Compound 1198850] | 33
27 | 1198835 (kT*kT*dA*dA*dG*d[5mC]*dA*d[5mC]*dT*dT*dT*kT*eA*k[5mC]*eA*kT; antisense) [Compound 1198835] | 85
28 | 1198857 (kT*k[5mC]*dT*dT*dA*dT*dA*dT*dG*dG*dT*kT*eT*kT*eG*kT; antisense) [Compound 1198857] | 19
29 | 1095426 (antisense k[5mC]*kT*dG*dA*dG*dG*dT*dA*dT*dA*dA*k[5mC]*eT*kG*eG*kG) [Compound 1095426] | 54

Same assay, conditions: Table 48; Yap1 mRNA level relative to untreated control; modified oligonucleotides targeting SEQ ID NO.: 1 and 2

Row | Substance | YAP1 (% UT)
30 | 1198320 (kG*k[5mC]*kT*dT*dT*dG*dG*dA*dA*dG*dA*dT*k[5mC]*eT*kG*eA; antisense) [Compound 1198320] | 26
31 | 1198293 (kA*kG*kT*dA*dT*dG*dT*dG*dG*d[5mC]*dA*dA*kT*eA*kA*eT; antisense) [Compound 1198293] | 25
32 | 1198348 (kT*kG*kT*dA*dA*dT*dA*dT*dT*dG*d[5mC]*dA*kA*eT*k[5mC]*eT; antisense) [Compound 1198348] | 40

Same assay, conditions: Table 49; Yap1 mRNA level relative to untreated control; modified oligonucleotides targeting SEQ ID NO.: 1 and 2

Row | Substance | YAP1 (% UT)
33 | 1198548 (antisense kT*kG*kG*dA*dA*dA*dT*dT*dG*dT*d[5mC]*dT*k[5mC]*kA*kT*eG) [Compound 1198548] | 26
34 | 1198334 (kA*kT*kA*dT*dG*dG*dT*dT*dT*dT*dG*dT*kG*eT*kG*eT; antisense) [Compound 1198334] | 57
35 | 1095567 (antisense k[5mC]*kA*k[5mC]*dT*dG*dA*dG*dG*dT*dA*dT*dA*kA*e[5mC]*kT*eG) [Compound 1095567] | 92

Same assay, conditions: Table 50; Yap1 mRNA remaining as percent of untreated control (UT), SNU-449 cells, single dose

Row | Substance | YAP1 (% UT)
36 | 1198614 (antisense kT*kA*kA*dA*dG*dT*dG*dT*dA*dT*dG*dT*k[5mC]*kA*kG*eA) [Compound 1198614] | 4
37 | 1198608 (antisense kT*kA*kT*dG*dT*dA*dA*dT*dA*dT*dT*dG*k[5mC]*kA*kA*eT) [Compound 1198608] | 83
38 | 1197233 (antisense kT*kA*kG*dA*mG*dT*dA*dT*dG*dT*dG*dG*d[5mC]*kA*kA*kT) [Compound 1197233] | 36
39 | 1197244 (antisense kT*kT*kA*d[5mC]*mA*dT*dT*dA*dG*dG*dA*dA*d[5mC]*kA*kA*kG) [Compound 1197244] | 60
40 | 1198622 (kT*kA*kA*dG*dT*dA*dA*dG*dG*dT*dT*dT*k[5mC]*k[5mC]*k[5mC]*eA; antisense) [Compound 1198622] | 26
41 | 1198615 (antisense kT*kT*kA*dA*dA*dG*dT*dG*dT*dA*dT*dG*kT*k[5mC]*kA*eG) [Compound 1198615] | 10

Same assay, conditions: Table 51; Yap1 mRNA remaining as percent of untreated control (UT), SNU-449 cells, single dose

Row | Substance | YAP1 (% UT)
42 | 1197269 (kT*kA*kA*dA*mG*dT*dG*dT*dA*dT*dG*dT*d[5mC]*kA*kG*kA) [Compound 1197269] | 3
43 | 1197263 (kG*kA*k[5mC]*dA*mA*d[5mC]*dT*d[5mC]*dT*dT*dA*dT*dA*kT*kG*kG) [Compound 1197263] | 91

Same assay, conditions: Table 52; Yap1 mRNA, modified oligonucleotides targeting SEQ ID NO: 1 and 2

Row | Substance | YAP1 (% UT)
44 | 1200831 (kT*kT*kT*dA*dG*mG*dA*dT*dG*d[5mC]*dA*dT*dG*kG*kT*kT; antisense) [Compound 1200831] | 42
45 | 1200829 (kA*kG*kG*dA*dT*mG*d[5mC]*dA*dT*dG*dG*dT*dT*kT*kT*kT; antisense) [Compound 1200829] | 49
46 | 1200820 (kG*kG*kA*dA*dG*mA*dT*d[5mC]*dT*dG*dA*dA*dA*k[5mC]*kT*k[5mC]; antisense) [Compound 1200820] | 24
47 | 1200843 (kA*k[5mC]*kT*d[5mC]*dT*mU*dA*dT*dA*dT*dG*dG*dT*kT*kT*kT; antisense) [Compound 1200843] | 46
48 | 1200853 (kA*kT*kG*dT*dA*mA*dT*dA*dT*dT*dG*d[5mC]*dA*kA*kT*k[5mC]; antisense) [Compound 1200853] | 69

Same assay, conditions: Yap1 mRNA, percent of untreated control; modified oligonucleotides targeting SEQ ID NO: 1 and 2; Table 47

Row | Substance | YAP1 (% UT)
49 | 1197180 (antisense kA*kT*kG*dG*dA*dA*dA*dT*dT*dG*dT*d[5mC]*dT*k[5mC]*kA*kT) [Compound 1197180] | 47

Reference: patent US11214803B2, “Modulators of YAP1 expression” (Ionis Pharmaceuticals, Inc., priority 2019, dated 2022)
